Source: ChEMBL document CHEMBL1201862, “PubChem BioAssay data set” (2004)
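Grown in 96-well plates, cells were treated for 48 hours with each compound at five concentrations. Insufficient inhibition: endpoint recorded as highest concentration tested. GI50 = concentration required for 50% inhibition of growth.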 Calls of active or inactive are those of the source. Cut-off read from the data, not from the text of the source: active = GI50 up to about 1.1 µM and inactive = higher.

What was measured:
Experiment in all cases: DTP human tumour cell line panel, 48 h
[1] = test system: MDA-N
[2] = test system: EKVX
[3] = test system: HCT-15
[4] = test system: NCI/ADR-RES
[5] = test system: BT-549
[6] = test system: SK-MEL-2
[7] = test system: UO-31
[8] = test system: A549
[9] = test system: TK-10
[10] = test system: UACC-257
[11] = test system: SF-268
[12] = test system: Hs-578T
[13] = test system: SNB-19
[14] = test system: HL-60
[15] = test system: OVCAR-8
[16] = test system: UACC-62
[17] = test system: RPMI-8226
[18] = test system: HOP-62
[19] = test system: SR
[20] = test system: OVCAR-5
[21] = test system: NCI-H23
[22] = test system: SW-620
[23] = test system: T47D
[24] = test system: CAKI-1
[25] = test system: SN12C
[26] = test system: 786-0
[27] = test system: MOLT-4
[28] = test system: OVCAR-4
[29] = test system: M14
[30] = test system: SK-OV-3
[31] = test system: PC-3
[32] = test system: MCF7
[33] = test system: COLO 205
[34] = test system: HCT-116
[35] = test system: SK-MEL-5
[36] = test system: ACHN
[37] = test system: HOP-92
[38] = test system: SF-295
[39] = test system: K562
[40] = test system: NCI-H460
[41] = test system: IGROV-1
[42] = test system: HCC 2998
[43] = test system: CCRF-CEM
[44] = test system: A498
[45] = test system: NCI-H226
[46] = test system: KM12
[47] = test system: SF-539
[48] = test system: DU-145
[49] = test system: SNB-75
[50] = test system: U-251
[51] = test system: MDA-MB-231
[52] = test system: Malme-3M
[53] = test system: LOX IMVI
[54] = test system: NCI-H522
[55] = test system: SK-MEL-28
[56] = test system: OVCAR-3
[57] = test system: MDA-MB-435
[58] = test system: RXF 393
[59] = test system: HT-29

## CC(=O)O[C@H]1CC[C@@]2(C)C(=CC[C@H]3[C@@H]4C[C@H](N5CCCC5)[C@H](OC(C)=O)[C@@]4(C)CC[C@@H]32)C1
[1]
  GI50: > 51.1 µM (inactive)
[2]
  GI50: > 100 µM (inactive)
[3]
  GI50: > 100 µM
[4]
  GI50: > 100 µM (inactive)
[5]
  GI50: > 100 µM (inactive)
[6]
  GI50: > 100 µM (inactive)
[7]
  GI50: > 100 µM (inactive)
[8]
  GI50: > 100 µM (inactive)
[9]
  GI50: > 100 µM (inactive)
[10]
  GI50: 38 µM (inactive)
[11]
  GI50: > 100 µM (inactive)
[12]
  GI50: > 100 µM (inactive)
[13]
  GI50: > 100 µM (inactive)
[14]
  GI50: > 45.7 µM (inactive)
[15]
  GI50: > 100 µM (inactive)
[16]
  GI50: > 56.1 µM (inactive)
[17]
  GI50: > 60.1 µM (inactive)
[18]
  GI50: > 100 µM (inactive)
[19]
  GI50: > 100 µM (inactive)
[20]
  GI50: > 100 µM (inactive)
[21]
  GI50: > 100 µM (inactive)
[22]
  GI50: > 100 µM (inactive)
[23]
  GI50: > 100 µM (inactive)
[24]
  GI50: > 100 µM (inactive)
[25]
  GI50: > 100 µM (inactive)
[26]
  GI50: > 100 µM (inactive)
[27]
  GI50: > 81.5 µM (inactive)
[28]
  GI50: > 100 µM (inactive)
[29]
  GI50: 18.2 µM (inactive)
[30]
  GI50: > 100 µM (inactive)
[31]
  GI50: > 100 µM (inactive)
[32]
  GI50: > 100 µM (inactive)
[33]
  GI50: > 100 µM (inactive)
[34]
  GI50: > 56.5 µM (inactive)
[35]
  GI50: 23 µM (inactive)
[36]
  GI50: > 100 µM (inactive)
[37]
  GI50: > 100 µM (inactive)
[38]
  GI50: > 100 µM (inactive)
[39]
  GI50: 33.1 µM (inactive)
[40]
  GI50: > 100 µM (inactive)
[41]
  GI50: > 100 µM (inactive)
[42]
  GI50: > 93.3 µM (inactive)
[43]
  GI50: > 67.8 µM (inactive)
[44]
  GI50: > 100 µM (inactive)
[45]
  GI50: > 100 µM (inactive)
[46]
  GI50: > 100 µM (inactive)
[47]
  GI50: 29.3 µM (inactive)
[48]
  GI50: > 100 µM (inactive)
[49]
  GI50: > 100 µM (inactive)
[50]
  GI50: > 100 µM (inactive)
[51]
  GI50: > 100 µM (inactive)
[52]
  GI50: 33.7 µM (inactive)
[53]
  GI50: 49.2 µM (inactive)
[54]
  GI50: > 100 µM (inactive)
[55]
  GI50: 39.8 µM (inactive)
[56]
  GI50: > 86.3 µM (inactive)
[57]
  GI50: 32 µM (inactive)
[58]
  GI50: > 100 µM (inactive)
[59]
  GI50: 21.7 µM (inactive)

## C[N+]12CCCCC1C(COc1cccc3cccnc13)CCC2 (stereo not drawn)
[1]
  GI50: 93.5 µM (inactive)
[2]
  GI50: > 100 µM (inactive)
[3]
  GI50: > 100 µM
[4]
  GI50: > 100 µM (inactive)
[5]
  GI50: 42 µM (inactive)
[6]
  GI50: > 100 µM (inactive)
[7]
  GI50: > 100 µM (inactive)
[8]
  GI50: > 100 µM (inactive)
[9]
  GI50: > 100 µM (inactive)
[10]
  GI50: > 100 µM (inactive)
[11]
  GI50: > 100 µM (inactive)
[12]
  GI50: > 100 µM (inactive)
[13]
  GI50: > 100 µM (inactive)
[14]
  GI50: > 100 µM (inactive)
[15]
  GI50: > 100 µM (inactive)
[16]
  GI50: > 100 µM (inactive)
[17]
  GI50: 34.4 µM (inactive)
[18]
  GI50: 72.9 µM (inactive)
[19]
  GI50: > 100 µM (inactive)
[20]
  GI50: > 100 µM (inactive)
[21]
  GI50: > 100 µM (inactive)
[22]
  GI50: > 100 µM (inactive)
[23]
  GI50: > 100 µM (inactive)
[24]
  GI50: > 100 µM (inactive)
[25]
  GI50: > 100 µM (inactive)
[26]
  GI50: > 100 µM (inactive)
[27]
  GI50: > 100 µM (inactive)
[28]
  GI50: > 100 µM (inactive)
[29]
  GI50: > 100 µM (inactive)
[30]
  GI50: > 100 µM (inactive)
[31]
  GI50: > 100 µM (inactive)
[32]
  GI50: > 100 µM (inactive)
[33]
  GI50: > 100 µM (inactive)
[34]
  GI50: 61.2 µM (inactive)
[35]
  GI50: 75 µM (inactive)
[36]
  GI50: > 100 µM (inactive)
[37]
  GI50: 15.9 µM (inactive)
[38]
  GI50: > 100 µM (inactive)
[39]
  GI50: 77.4 µM (inactive)
[40]
  GI50: 58.6 µM (inactive)
[41]
  GI50: 75.5 µM (inactive)
[42]
  GI50: > 100 µM (inactive)
[43]
  GI50: > 100 µM (inactive)
[44]
  GI50: > 100 µM (inactive)
[45]
  GI50: 59.6 µM (inactive)
[46]
  GI50: > 100 µM (inactive)
[47]
  GI50: > 100 µM (inactive)
[48]
  GI50: > 100 µM (inactive)
[49]
  GI50: > 100 µM (inactive)
[50]
  GI50: > 100 µM (inactive)
[51]
  GI50: 91.2 µM (inactive)
[52]
  GI50: > 100 µM (inactive)
[53]
  GI50: 93.5 µM (inactive)
[54]
  GI50: > 100 µM (inactive)
[55]
  GI50: > 100 µM (inactive)
[56]
  GI50: 26.6 µM (inactive)
[57]
  GI50: > 100 µM (inactive)
[58]
  GI50: > 100 µM (inactive)
[59]
  GI50: 53.1 µM (inactive)
